The results in this text go back to ChEMBL document CHEMBL3745613, “Fragment-assisted hit investigation involving integrated HTS and fragment screening: Application to the identification of phosphodiesterase 10A (PDE10A) inhibitors” (Bioorg Med Chem Lett, 2016).

Values after ≈ are worked out from the molar mass of the structure shown.

For data set [1], the target named is T1, cAMP and cAMP-inhibited cGMP 3',5'-cyclic phosphodiesterase 10A (Homo sapiens, UniProt Q9Y233). Description: Inhibition of human recombinant PDE10A using cAMP as substrate preincubated for 20 mins followed by substrate addition measured after 2 hrs by FRET assay.
Data set [2] in a line: Equilibrium solubility of the compound in phosphate buffer at pH 7.4. The data set is classed as physicochemical.
Data set [3] concerns the target T1, cAMP and cAMP-inhibited cGMP 3',5'-cyclic phosphodiesterase 10A. Kind of data set: Inhibition of human recombinant PDE10A using cAMP as substrate at 30 uM preincubated for 20 mins followed by substrate addition measured after 2 hrs by FRET assay.
Data set [4] concerns the target cGMP-dependent 3',5'-cyclic phosphodiesterase (Homo sapiens, UniProt O00408). Kind of data set: Inhibition of human recombinant PDE2A using cAMP as substrate preincubated for 20 mins followed by substrate addition measured after 2 hrs by FRET assay.
The target of data set [5] is T1, cAMP and cAMP-inhibited cGMP 3',5'-cyclic phosphodiesterase 10A. Description: Binding affinity to human recombinant PDE10A after 15 mins by surface plasmon resonance assay. A general note: Surface plasmon resonance follows binding to a sensor surface in real time, without labels.

Chain of cGMP-dependent 3',5'-cyclic phosphodiesterase (O00408 whole entry): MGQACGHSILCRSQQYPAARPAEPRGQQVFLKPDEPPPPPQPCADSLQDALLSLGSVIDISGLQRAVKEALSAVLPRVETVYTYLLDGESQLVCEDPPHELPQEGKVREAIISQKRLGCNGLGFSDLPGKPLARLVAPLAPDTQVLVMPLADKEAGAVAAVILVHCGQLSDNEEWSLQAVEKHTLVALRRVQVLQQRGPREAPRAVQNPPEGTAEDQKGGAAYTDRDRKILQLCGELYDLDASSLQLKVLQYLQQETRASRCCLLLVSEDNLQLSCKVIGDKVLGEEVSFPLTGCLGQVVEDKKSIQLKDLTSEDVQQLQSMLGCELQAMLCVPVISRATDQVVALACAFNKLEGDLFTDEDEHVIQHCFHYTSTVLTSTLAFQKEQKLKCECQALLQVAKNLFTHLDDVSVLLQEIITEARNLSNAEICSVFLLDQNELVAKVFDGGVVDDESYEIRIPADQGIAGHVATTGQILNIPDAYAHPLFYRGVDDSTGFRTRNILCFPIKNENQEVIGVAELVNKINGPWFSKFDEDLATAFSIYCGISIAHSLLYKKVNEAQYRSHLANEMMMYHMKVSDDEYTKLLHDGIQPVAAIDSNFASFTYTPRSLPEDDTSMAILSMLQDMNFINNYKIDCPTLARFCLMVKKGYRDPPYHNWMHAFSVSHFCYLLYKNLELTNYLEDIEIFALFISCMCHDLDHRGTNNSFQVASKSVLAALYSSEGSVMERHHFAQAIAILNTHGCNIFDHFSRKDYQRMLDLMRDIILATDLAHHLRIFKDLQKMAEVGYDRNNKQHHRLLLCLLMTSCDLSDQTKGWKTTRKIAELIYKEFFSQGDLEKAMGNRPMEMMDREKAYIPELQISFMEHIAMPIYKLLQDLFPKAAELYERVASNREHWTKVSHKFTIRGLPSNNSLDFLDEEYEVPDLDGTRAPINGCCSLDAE
T1 sequence (Q9Y233 whole entry): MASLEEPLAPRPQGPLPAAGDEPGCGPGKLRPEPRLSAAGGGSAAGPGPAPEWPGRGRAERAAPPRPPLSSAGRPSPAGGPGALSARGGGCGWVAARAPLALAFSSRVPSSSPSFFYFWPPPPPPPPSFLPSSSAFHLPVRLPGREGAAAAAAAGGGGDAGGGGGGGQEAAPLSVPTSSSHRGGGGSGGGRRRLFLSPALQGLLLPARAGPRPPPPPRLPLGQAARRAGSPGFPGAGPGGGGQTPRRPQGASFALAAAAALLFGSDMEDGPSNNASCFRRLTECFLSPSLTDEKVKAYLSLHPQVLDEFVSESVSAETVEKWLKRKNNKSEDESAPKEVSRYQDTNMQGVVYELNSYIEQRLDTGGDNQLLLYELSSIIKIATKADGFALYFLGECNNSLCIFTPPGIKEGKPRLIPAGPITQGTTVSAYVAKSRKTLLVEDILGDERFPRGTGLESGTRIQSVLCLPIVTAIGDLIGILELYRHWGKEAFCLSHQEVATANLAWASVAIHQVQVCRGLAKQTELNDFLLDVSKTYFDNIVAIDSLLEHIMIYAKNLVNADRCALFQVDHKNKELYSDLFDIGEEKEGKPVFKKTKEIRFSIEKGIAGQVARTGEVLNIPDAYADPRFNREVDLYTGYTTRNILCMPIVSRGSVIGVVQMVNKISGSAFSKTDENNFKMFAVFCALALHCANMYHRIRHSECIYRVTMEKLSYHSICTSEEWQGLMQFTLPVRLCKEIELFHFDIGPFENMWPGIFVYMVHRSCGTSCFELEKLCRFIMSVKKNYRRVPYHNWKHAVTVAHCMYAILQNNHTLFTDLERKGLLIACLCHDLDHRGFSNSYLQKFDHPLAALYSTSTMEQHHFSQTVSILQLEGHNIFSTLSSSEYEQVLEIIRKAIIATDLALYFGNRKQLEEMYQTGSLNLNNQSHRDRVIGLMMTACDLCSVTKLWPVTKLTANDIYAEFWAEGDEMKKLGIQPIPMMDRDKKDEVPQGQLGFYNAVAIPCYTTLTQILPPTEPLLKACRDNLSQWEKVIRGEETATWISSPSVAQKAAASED

Broadly, the IC50 is the concentration at which inhibition is half-maximal. The term thermodynamic solubility denotes solubility found after equilibrating the solid with the medium. Consider `Cc1nocc1C(=O)Nc1cc(-c2nc3ccccc3[nH]2)[nH]n1`, for which the IC50 in data set [1] was 3800 nM. In data set [2], the solubility (thermodynamic) is 2 µM (≈ 0.617 µg/mL).

One may read the inhibition as the relative decrease from the control value, in per cent. Consider `CS(=O)(=O)c1cccc(C(=O)Nc2cc(-c3nc4ccccc4[nH]3)[nH]n2)c1`, for which, in data set [1], the IC50 is over 30000 nM. Also, the inhibition in data set [3] worked out at 23%.

With `Cn1c(-c2cnc(NC(=O)c3cccc(C#N)c3)s2)nc2ccccc21`, the concentration for half-maximal inhibition (IC50) in data set [1] is 120 nM. Moreover, in data set [2], the thermodynamic solubility is under 1 µM.

Consider `N#Cc1cccc(C(=O)Nc2ncc(-c3nc4ccccc4[nH]3)s2)c1`, for which the half-inhibitory concentration (IC50) in data set [1] was 110 nM; in data set [4], over 100 µM. Further, in data set [2], the thermodynamic solubility turned out to be 1 µM (≈ 0.345 µg/mL).

For the compound `Cc1c(Cl)cccc1C(=O)Nc1ncc(-c2nc3ccccc3n2C)s1`, the results for the half-inhibitory concentration (IC50) in data set [1] and in data set [4] were 16 nM and over 100 µM, respectively. The compound also registered a thermodynamic solubility in data set [2] of under 1 µM.

`N#Cc1cccc(C(=O)Nc2ncc(-c3nc4ccccc4n3CCN)s2)c1`: the IC50 in data set [1] came out at 490 nM. The same compound gave a thermodynamic solubility in data set [2] of 13 µM (≈ 5.05 µg/mL).

As for `Cc1cccc(C(=O)Nc2cc(-c3nc4ccccc4[nH]3)[nH]n2)c1Cl`, the IC50 in data set [1] amounted to 280 nM. Also, the solubility (thermodynamic) in data set [2] is under 1 µM.

As to `Cc1c(Cl)cccc1C(=O)Nc1cc(-c2nc3ccccc3[nH]2)[nH]n1`, the IC50 in data set [1] was 100 nM; in data set [4], over 100 µM. In data set [2], this compound had a thermodynamic solubility of under 1 µM.

Consider `Cc1csc(-c2ccccn2)n1`, for which the half-maximal inhibitory concentration (IC50) in data set [5] was found to be 324 µM.

For the compound `Cc1cc(-c2ccco2)[nH]n1`, the IC50 in data set [5] came to 851 µM.
